# Reference: patent publication US20260033988A1, “SYSTEM AND METHOD FOR ULTRASOUND-ENHANCED DELIVERY OF DRUGS” (Sonikure Holdings Limited, priority 2016, published 2026)
# Assays:
# [1] = Ultrasound delivery of Riboflavin-5-Phosphate into porcine corneas, fluorescent measurement of extract; conditions: epi-off; 0.1% solution; ultrasound 40 kHz, mechanical index 0.2, for 5 minutes or less
# Experimental: Riboflavin-5-Phosphate (R5P), 1.5 mL, 0.1% solution was applied to a porcine eyeball, epi-off. The ultrasound parameters were 40 kHz, mechanical index 0.2. The cornea was in full contact with R5P over indicated time period. The cornea was excised and weighed. Extracted supernatant with R5P was used for fluorescent measurement.
# [2] = tested on: experimental autoimmune uveitis (EAU); assay: In vivo delivery of dexamethasone into mice eyes for treatment of experimental autoimmune uveitis (ultrasound versus intravitreal injection)
# Experimental: The procedure relates to an in vivo study of delivering small molecules into mice eyes for treatment of experimental autoimmune uveitis (EAU). The small molecules used were dexamethasone, with of a molecular weight of about […]. For a given animal subject, the drug was delivered via intravitreal injection (10 μg in 1 μL balanced salt solution), to the left eye. For the right eye, the drug (10 μg in 1 μL balanced salt solution, repeat 3 times) was delivered by 40 kHz ultrasound.
# A timeline is illustrated of the experimental procedure. EAU mice were provided as described. The final n=2, as one mouse was dead on day 10 during the first treatment. On day 0, EAU induction occurred. Baseline imaging by confocal scanning laser ophthalmology (cSLO) and optical coherence tomography (OCT) occurred on day 0. On day 10, the drug was applied via ultrasound on the right eye. The drug was applied via intravitreal injection to the left eye. On day 13, imaging was conducted via cSLO and OCT. On days 13, 17, and 20, the drug was delivered to the right eye via ultrasound. On day 21, the mice were sacrificed for histology. Imaging was conducted by cSLO and OCT.
# [3] = Ultrasound delivery of riboflavin into ex vivo pig corneas; design: species or system porcine
# Experimental: For example, a riboflavin molecule may be delivered into a cornea by ultrasound. An ex vivo study was conducted of delivering small molecules into porcine corneal tissue. The small molecules used was riboflavin. The small molecules may have a molecular weight of about 376 g/mol or less. By using ultrasound at 40 kHz, at least 15 μg/mL of riboflavin was delivered into the deep corneal stromal tissue.
# An illustration is provided of riboflavin 1 mg/mL delivered into ex vivo pig corneas. The riboflavin concentration in μg/mL is shown for different circumstances, such as epithelium debrided (Epi-off) cornea with 30 minutes riboflavin contact, Epi-Off with 3 cycles of 90 seconds ultrasound+15 minutes breaks in between and Epi-Off with 3 cycles of 90 seconds ultrasound+5 minutes break in between. 0.1% Riboflavin solution, Peschke D was delivered in ex-vivo pig corneas. The 15 μg/mL safety threshold is exceeded by applying 3 cycles of 90 seconds ultrasound with 5 minute breaks in between.
smiles,measurement,setting,value
Cc1cc2nc3c(=O)[nH]c(=O)nc-3n(C[C@H](O)[C@H](O)[C@H](O)COP(=O)(O)O)c2cc1C [Riboflavin-5-Phosphate],concentration delivered into porcine corneas compared with typical Dresden protocol (30 minutes instillation),[1],reached the therapeutic threshold
C[C@@H]1C[C@H]2[C@@H]3CCC4=CC(=O)C=C[C@]4(C)[C@@]3(F)[C@@H](O)C[C@]2(C)[C@@]1(O)C(=O)CO [dexamethasone],retina injury (FFA photo and OCT sections),"[2]; left eye, intravitreal injection 10 μg in 1 μL, retinal change still existed at day 21",retina injury caused by intravitreal injection
same,"retina injury (fundus photos, FFA)","[2]; right eye of Mouse 1 and Mouse 2, drug delivered by 40 kHz ultrasound, days 13 and 21",no injury of retina
Cc1cc2nc3c(=O)[nH]c(=O)nc-3n(C[C@H](O)[C@H](O)[C@H](O)CO)c2cc1C [riboflavin],riboflavin concentration in cornea versus 15 μg/mL safety threshold,"[3]; ex vivo pig cornea, Epi-Off, 0.1% riboflavin solution, 3 cycles of 90 seconds ultrasound with 5 minute breaks in between",> 15 µg/mL
same,riboflavin delivered into the deep corneal stromal tissue,"[3]; ex vivo porcine cornea, ultrasound at 40 kHz",at least 15 μg/mL
